Measured values from patent US20100056565A1, “Heterocyclic Derivatives as M3 Muscarinic Receptors” (priority 2007, published 2010).
Structures can show the parent of a compound that is named as a salt.

Biological target: T1, Recombinant human M3 receptor (Homo sapiens, UniProt P20309)
T1 construct: expressed in transfected cells; host or cells: CHO-K1 cells (membranes)
Assay: biochemical
Format: binding
Details: SPA format; read-out: M3 Ki (SPA format)
Procedure: Recombinant human M3 receptor was expressed in CHO-K1 cells. Cell membranes were prepared and binding of [3H]-N-methyl scopolamine ([3H]-NMS) and compounds was assessed by a scintillation proximity assay (SPA). The incubation time was 16 hours at room temperature in the presence of 1% (v/v) DMSO. The assay was performed in white 96 well clear-bottomed NBS plates (Corning). Prior to the assay, the CHO cell membranes containing M3 receptor were coated onto SPA WGA (Wheat germ agglutinin) beads (GE Healthcare). Non specific binding was determined in the presence of 1 μM Atropine.
Radioactivity was measured on a Microbeta scintillation counter (PerkinElmer) using a 3H protocol with a 2 minutes per well read time. […] Concentration dependent inhibition of [3H]-NMS binding by compounds was expressed as pIC50.

T1 sequence (P20309 whole entry): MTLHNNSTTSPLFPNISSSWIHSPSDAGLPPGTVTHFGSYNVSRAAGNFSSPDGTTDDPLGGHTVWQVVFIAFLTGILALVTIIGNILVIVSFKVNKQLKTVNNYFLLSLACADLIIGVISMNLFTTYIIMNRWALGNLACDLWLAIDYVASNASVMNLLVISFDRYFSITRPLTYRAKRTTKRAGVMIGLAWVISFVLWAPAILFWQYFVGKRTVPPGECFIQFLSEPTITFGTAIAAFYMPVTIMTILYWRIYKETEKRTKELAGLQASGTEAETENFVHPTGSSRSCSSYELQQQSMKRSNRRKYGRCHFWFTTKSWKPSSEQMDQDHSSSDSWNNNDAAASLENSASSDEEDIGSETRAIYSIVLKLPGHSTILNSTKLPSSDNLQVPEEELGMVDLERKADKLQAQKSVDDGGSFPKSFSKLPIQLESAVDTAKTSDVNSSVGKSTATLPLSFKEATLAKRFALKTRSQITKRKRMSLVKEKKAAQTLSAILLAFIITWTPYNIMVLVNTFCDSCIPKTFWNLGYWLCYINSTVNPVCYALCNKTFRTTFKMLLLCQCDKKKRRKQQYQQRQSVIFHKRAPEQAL

SMILES: OC(c1ccccc1)(c1ccccc1)c1ncc(C[N+]23CCC(CC2)[C@@H](Oc2ccc(Cl)cc2)C3)o1 [Example 63, (R)-3-(4-Chloro-phenoxy)-1-[2-(hydroxy-diphenyl-methyl)-oxazol-5-ylmethyl]-1-azonia-bicyclo[2.2.2]octane; bromide]
- Ki: < 5 nM

SMILES: OC(c1ccccc1)(c1ccccc1)c1ncc(C[N+]23CCC(CC2)[C@@H](Sc2ccc(F)cc2)C3)o1 [Example 97, (R)-3-(4-Fluoro-phenylsulfanyl)-1-[2-(hydroxy-diphenyl-methyl)-oxazol-5-ylmethyl]-1-azonia-bicyclo[2.2.2]octane; bromide]
- Ki: < 5 nM

SMILES: O[C@](c1ccccc1)(c1ncc(C[N+]23CCC(CC2)[C@@H](CSc2cccc(F)c2)C3)o1)C1CCCCC1 [Example 108, (R)-1-[2-((R)—Cyclohexyl-hydroxy-phenyl-methyl)-oxazol-5-ylmethyl]-3-(3-fluoro-phenylsulfanylmethyl)-1-azonia-bicyclo[2.2.2]octane; bromide]
- Ki: < 5 nM

SMILES: O[C@@](c1ccccc1)(c1ncc(C[N+]23CCC(CC2)CC3)o1)C1CCCCC1 [Example 5, 1-[2-((S))-Cyclohexyl-hydroxy-phenyl-methyl)-oxazol-5-ylmethyl]-1-azonia-bicyclo[2.2.2]octane bromide]
- Ki: < 5 nM

SMILES: OC(c1ccccc1)(c1ccccc1)c1ncc(C[N+]23CCC(CC2)[C@@H](OCc2cccc(F)c2)C3)o1 [Example 49, (R)-3-(3-fluoro-benzyloxy)-1-[2-(hydroxy-diphenyl-methyl)-oxazol-5-ylmethyl]-1-azonia-bicyclo[2.2.2]octane; formate]
- Ki: < 5 nM

SMILES: O[C@](c1ccccc1)(c1ncc(C[N+]23CCC(CC2)[C@@H](OCc2ccc(Cl)c(Cl)c2)C3)o1)C1CCCCC1 [Example 22, (R)-1-[2-((R)-cyclohexyl-hydroxy-phenyl-methyl)-oxazol-5-ylmethyl]-3-(3,4-dichloro-benzyloxy)-1-azonia-bicyclo[2.2.2]octane; formate]
- Ki: < 5 nM

SMILES: OC(c1ccccc1)(c1ccccc1)c1noc(C[N+]23CCC(CC2)[C@@H](Oc2ccsc2)C3)n1 [Example 115, (R)-1-[3-(Hydroxy-diphenyl-methyl)-[1,2,4]oxadiazol-5-ylmethyl]-3-(thiophen-3-yloxy)-1-azonia-bicyclo[2.2.2]octane; chloride]
- Ki: < 5 nM

SMILES: OC(c1ccccc1)(c1ccccc1)c1ncc(C[N+]23CCC(CC2)C(COc2cccc(F)c2)C3)o1 (single isomer, unassigned) [Example 83, 3-(3-Fluoro-phenoxymethyl)-1-[2-(hydroxy-diphenyl-methyl)-oxazol-5-ylmethyl]-1-azonia-bicyclo[2.2.2]octane; bromide]
- Ki: 5 to 20 nM

SMILES: O[C@](c1ccccc1)(c1ncc(C[N+]23CCC(CC2)[C@@H](SCc2ccccc2)C3)o1)C1CCCCC1 [Example 41, (R)-3-Benzylsulfanyl-1-[2-((R)-cyclohexyl-hydroxy-phenyl-methyl)-oxazol-5-ylmethyl]-1-azonia-bicyclo[2.2.2]octane; bromide]
- Ki: < 5 nM

SMILES: N#Cc1ccc(CO[C@H]2C[N+]3(Cc4cnc([C@](O)(c5ccccc5)C5CCCCC5)o4)CCC2CC3)cc1 [Example 21, (R)-3-(4-cyano-benzyloxy)-1-[2-((R)-cyclohexyl-hydroxy-phenyl-methyl)-oxazol-5-ylmethyl]-1-azonia-bicyclo[2.2.2]octane; formate]
- Ki: < 5 nM

SMILES: OC(c1ccccc1)(c1cc(C[N+]23CCC(CC2)C(CSc2ccccc2)C3)on1)C1CCCCC1 (single isomer, unassigned) [Example 123]
- Ki: < 5 nM

SMILES: O[C@](c1ccccc1)(c1ncc(C[N+]23CCC(CC2)[C@@H](OCc2ccccc2F)C3)o1)C1CCCCC1 [Example 52, (R)-1-[2-((R)-cyclohexyl-hydroxy-phenyl-methyl)-oxazol-5-ylmethyl]-3-(2-fluoro-benzyloxy)-1-azonia-bicyclo[2.2.2]octane; formate]
- Ki: < 5 nM
